Results taken from patent US20190076417A1, “COMPOSITIONS AND METHODS FOR TREATING OR PREVENTING ATRIAL FIBRILLATION” (Northwestern University, priority 2010, published 2019).

Key:
[1] = system: M2 versus M3 muscarinic receptor subtype; details: cited from earlier work
[2] = system: M2 versus M1 muscarinic receptor subtype; details: cited from earlier work
[3] = system: canine model, vagal stimulation; assay: Canine arrhythmia model: ERP shortening and AF induced by vagal stimulation; format: in vivo; details: 20 microgram/kg single iv, 10-15 minutes after administration
Description: Canine Arrhythmia Model. […] Bioorg. Med. Chem. 2007, 15, 2312-2321), was evaluated for its ability to decrease effective refractory period and atrial fibrillation induced by vagal stimulation. Open chest electrophysiological mapping was performed in a canine model as previously described (Arora, R. et al. Am. J. Physiol. Heart Circ. Physiol. 2008, 294, […]-[…]). […] At baseline, effective refractory periods (ERPs) were obtained at multiple sites on each plaque in the absence and presence of vagal stimulation (VS). AF inducibility was also assessed under each of these conditions i.e. with and without VS. After baseline measurements had been made, methoctramine tetrahydrochloride hydrate (20 microgram/kg), dissolved in normal saline, was administered via a single iv injection. 10-15 minutes after methoctramine administration, ERPs and AF inducibility were reassessed in the absence and presence of VS.

[4] = system: canines subjected to heart failure (HF); assay: Vagal stimulation induced ERP shortening in canine heart failure model (rapid ventricular pacing); format: in vivo; details: left atrium, in presence of AChE inhibitor, without it 10±4
Description: Effective Refractory Periods. Effective refractory periods (ERPs) were obtained from 5 distributed sites from the PV, 6 sites from the PLA, and 4 sites from the LAA during each autonomic intervention. For each ERP, the pacing protocol consisted of a drive train (S1) of eight beats with a cycle length of 400 ms followed by an extrastimulus (S2). The S2 was decremented by 10 ms until loss of capture. […] Pacing was performed at an output current twice the threshold required for consistent capture of the tissue. The mean ERP was used as the representative ERP for each of the three sites as well as the entire left atrium.
Canines were subjected to heart failure (HF) by rapid ventricular pacing (240/min for 3 weeks). Vagal stimulation induced ERP shortening (VS-ΔERP)(ms) was assessed in the test canines as well as controls at multiple sites in the LA. VS-ΔERP was reassessed in the presence of an acetylcholineesterase (AChE) inhibitor (physostigmine). Explanted LA were subjected to 1) ELISA for acetylcholinesterase (AChE) activity, 2) AChE immunostaining and 3) radioactive M2 receptor binding assay.

| Compound | selectivity for M2 versus M3 [1] | selectivity for M2 versus M1 [2] | Vagal induced AF [3] | Vagal induced ERP shortening ([3]; baseline 40 ms, p<0.01) | Vagal stimulation induced ERP shortening (VS-ΔERP) [4] |
| --- | --- | --- | --- | --- | --- |
| CC(C)N(CC[C@H](c1ccccc1)c1cc(CO)ccc1O)C(C)C | 2 fold |  |  |  |  |
| Cc1cccc(C(=O)N2CCC(N3CCC(Cc4ccc(S(=O)(=O)c5cccc(Cl)c5)cc4)CC3)CC2)c1N [Sch 211803] | 786 fold | 734 fold |  |  |  |
| COc1ccncc1CN1CCC(N(CCCCCCCN2CC[C@@H](C(C(N)=O)(c3ccccc3)c3ccccc3)C2)C(C)C)CC1 [TD-6301] | 36 fold | 31 fold |  |  |  |
| COc1ccccc1CNCCCCCCNCCCCCCCCNCCCCCCNCc1ccccc1OC [methoctramine] | 219 fold | 35 fold | markedly decreased | 10 ms |  |
| CNC(=O)Oc1ccc2c(c1)[C@]1(C)CCN(C)[C@@H]1N2C [physostigmine] |  |  |  |  | 28 ± 4 ms |
| Cc1ccc(O)c([C@H](CCN(C(C)C)C(C)C)c2ccccc2)c1 [tolterodine] | 1.7 fold |  |  |  |  |
